Experimental data taken from the NIST ThermoML archive (doi:10.1016/j.fluid.2015.07.022).
± gives the expanded uncertainty stated by the source.

Conditions: 298.15 K; for viscosity / mass density: 100 kPa, Liquid; for viscosity: Capillary tube (Ostwald / Ubbelohde) method; for mass density: Vibrating tube method
[1] = Kruss K11 tensiometer with Wilhelmy plate

SMILES	surface tension liquid-gas [1] [mN/m]	viscosity [mPa·s]	mass density [kg/m3]	surface tension liquid-gas (Kruss K11 tensiometer and Wilhelmy plate) [mN/m]
CCCCCCCCCCCCCC[P+](CCCCCC)(CCCCCC)CCCCCC.N#C[N-]C#N [tetradecyl(trihexyl)phosphonium dicyanamide]	33.1 ± 0.4	437.8 ± 17	897.36 ± 0.72	–
CCCCCCCCCCCC [dodecane]	24.9 ± 0.2	1.359 ± 0.015	745.23 ± 0.14	–
O [water]	–	0.899 ± 0.01	–	72 ± 0.2
